Paper PMC11588247, “Antimicrobial and antioxidant activities of peptide derived from turmeric plant (Curcuma longa L)” (PLOS ONE, 2024)
Ends that are not written are not given here.

How the values were obtained:
[1] = ABTS radical scavenging assay; details: 10 μL sample + 190 μL ABTS solution, 5 min dark, absorbance 750 nm, ascorbic acid standard; hydrolysate at 100 μg/mL
Protocol: Radical scavenging antioxidant activity was determined according to the ABTS radical scavenging activity following the method described by Re et al. with slight modifications. Briefly, the solution of ABTS radical was prepared from the reaction between 7 mM ABTS (2,2-azino-bis (3-ethylbenzothiazoline-6-sulphonic acid) diammonium salt) and 2.45 mM ammonium persulphate. The resulting ABTS solution was diluted with distilled water to achieve an optical density of 0.7 at 750 nm. Then, a sample or standard of 10 μL was mixed with 190 μL of ABTS solution and incubated for 5 minutes in the dark. The absorbance was measured at 750 nm by a microplate reader (Synergy H1 Hybrid Multi-Mode Reader, Biotek, Winusky, VT, USA). Ascorbic acid was used as the standard.

[2] = DPPH radical scavenging assay; details: 10 μL sample + 190 μL 0.1 mM DPPH, 30 min dark, room temperature, absorbance 517 nm, ascorbic acid standard; hydrolysate at 100 μg/mL
Protocol: The DPPH radical scavenging activity of the sample was evaluated following the protocol by Muangrod et al. with slight modifications. Briefly, 190 μL of 0.1 mM DPPH was mixed with 10 μL of the sample or standard ascorbic acid in each well and incubated at room temperature in the dark for 30 minutes. The absorbance of the mixture was measured at 517 nm using a microplate reader (Synergy H1 Hybrid Multi-Mode Reader, Biotek, Winusky, VT, USA). The percentage inhibition of DPPH radical scavenging activity was calculated using the following equation: %DPPHinhibition=[(Acontrol−Asample)/Acontrol]×100 (2) where A control means the absorbance of the control that contained all reagents except the test samples, and A sample means the absorbance of the mixture (sample and 0.1 mM DPPH). Ascorbic acid was used as the standard. Results were expressed as μg ascorbic acid equivalent (μg AAE g^−1).

[3] = FRAP (ferric ion-reducing antioxidant power) assay; details: 10 μL sample + 190 μL FRAP reagent (acetate pH 3.6, TPTZ, FeCl3), 30 min dark, absorbance 593 nm, ascorbic acid standard; hydrolysate at 100 μg/mL
Protocol: The ferric ion-reducing antioxidant power assay was analyzed according to the method by Rumpf et al. with minor modifications. Briefly, the FRAP reagent was prepared from 300 mM sodium acetate (pH 3.6) and 10 mM TPTZ (2,4,6-tris (2-pyridyl)-s-triazine) in 40 mM HCl and 20 mM ferric chloride at the ratio of 10:1:1, respectively. Then, a 10 μL aliquot of the sample or standard was mixed with 190 μL of the FRAP reagent before incubating in the dark for 30 minutes. The absorbance was measured at 593 nm using a microplate reader (Synergy H1 Hybrid Multi-Mode Reader, Biotek, Winusky, VT, USA). Ascorbic acid (Sigma-Aldrich, Singapore) was used as the standard. Results were expressed as micrograms of ascorbic acid equivalent per gram (μg AAE g^−1).

[4] = system: Acinetobacter baumannii (ATCC 19606); assay: microbe, parasite or virus in culture; format: cell-based; details: sample 100 μg/mL, 6 h at 37°C, MTT OD570 vs inoculated broth control
Text: (§1) Pathogenic microorganism composes of Escherichia coli (ATCC 25922), Staphylococcus aureus (ATCC 25923), Staphylococcus epidermidis (ATCC 12228), Bacillus subtilis (ATCC 6633), Bacillus cereus (ATCC 11778), Pseudomonas aeruginosa (ATCC 27853), Vibrio parahaemolyticus (ATCC 17802), Klebsiella pneumoniae (ATCC 27736), Acinetobacter baumannii (ATCC 19606), Enterobacter cloacae (ATCC 13047), Salmonella enterica (ATCC 13311), and Salmonella Typhi (ATCC 22842) were used in the experiments.
(§2) Bacteria were initially cultured on Tryptic Soy Agar (TSA) plates at 37°C for 12–16 hours. A single colony was transferred to Tryptic Soy Broth (TSB) and incubated at 37°C with gently agitation at 100 rpm, for an additional 12–16 hours. The bacterial concentration was adjusted to an optical density at 600 nm (OD600) of 0.05, corresponding to 4 x 10^7 CFU/mL, before being added to a 96-well plate (50 μL per well). Subsequently, 50 μL of protein hydrolysate or peptide was inoculated into each well at a final concentration of 100 μg/mL, and the mixture was incubated at 37°C with continuous shaking at 100 rpm for 6 hours. Wells with inoculated broth alone served as a negative control, while wells containing Ampicillin (100 μg/mL) served as a positive control. Following incubation, 25 μL of a 100 μg/mL MTT (3-(4,5-dimethylthiazol-2-yl)-2,5-diphenyltetrazolium bromide) solution was added to each well, thoroughly mixed, and incubated at room temperature for 4 hours. The optical density at 570 nm (OD570nm) was subsequently measured using a microplate reader (Synergy H1 Hybrid Multi-Mode Reader, Biotek, Winusky, VT, USA). The percentage of inhibition was calculated using the provided equation: [(OD570control–OD570test)/OD570control]×100 (1)

[5] = system: Salmonella enterica (ATCC 13311); assay: microbe, parasite or virus in culture; format: cell-based; details: sample 100 μg/mL, 6 h at 37°C, MTT OD570 vs inoculated broth control
Text: as §1, §2

[6] = system: Staphylococcus aureus (ATCC 25923); assay: microbe, parasite or virus in culture; format: cell-based; details: sample 100 μg/mL, 6 h at 37°C, MTT OD570 vs inoculated broth control
Text: as §1, §2

[7] = system: Staphylococcus epidermidis (ATCC 12228); assay: microbe, parasite or virus in culture; format: cell-based; details: sample 100 μg/mL, 6 h at 37°C, MTT OD570 vs inoculated broth control
Text: as §1, §2

Sequence	ABTS radical-scavenging activity (antioxidant activity ± SD) [1]	DPPH radical scavenging activity (antioxidant activity ± SD) [2]	FRAP (antioxidant activity ± SD) [3]	other results
ARLLLLKP [Cur-8]	0.13±0.00 μg AAE g^−1	0.58±0.00 μg AAE g^−1	1.05±0.01 μg AAE g^−1	–
HAFRDAVTPLE [Cur-12]	0.02±0.00 μg AAE g^−1	0.60±0.06 μg AAE g^−1	1.04±0.01 μg AAE g^−1	–
KLHLLILI [Cur-1]	0.22±0.00 μg AAE g^−1	0.63±0.04 μg AAE g^−1	1.05±0.01 μg AAE g^−1	Inhibitory Percentage (Means±SD), Acinetobacter baumannii ATCC 19606 ([4]; listed as Cur-25): inhibited growth; Inhibitory Percentage (Means±SD), Salmonella enterica ATCC 13311 ([5]; listed as Cur-25): inhibited growth; Inhibitory Percentage (Means±SD), Staphylococcus aureus ATCC 25923 ([6]; listed as Cur-25): inhibited growth; Inhibitory Percentage (Means±SD), Staphylococcus epidermidis ATCC 12228 ([7]; listed as Cur-25): inhibited growth
LKKPVILL [Cur-11]	0.17±0.01 μg AAE g^−1	0.68±0.02 μg AAE g^−1	1.05±0.01 μg AAE g^−1	–
LKKTLLLVNKADLLP [Cur-5]	0.12±0.00 μg AAE g^−1	0.62±0.01 μg AAE g^−1	1.04±0.00 μg AAE g^−1	–
PKVKILIL [Cur-4]	0.15±0.00 μg AAE g^−1	0.77±0.01 μg AAE g^−1	1.08±0.09 μg AAE g^−1	–
PLKLLLPL [Cur-7]	0.15±0.00 μg AAE g^−1	0.74±0.02 μg AAE g^−1	1.04±0.00 μg AAE g^−1	–
PLLLKLIV [Cur-2]	0.13±0.00 μg AAE g^−1	0.75±0.03 μg AAE g^−1	1.05±0.01 μg AAE g^−1	Inhibitory Percentage (Means±SD), Acinetobacter baumannii ATCC 19606 ([4]; listed as Cur-14): inhibited growth; Inhibitory Percentage (Means±SD), Salmonella enterica ATCC 13311 ([5]; listed as Cur-14): inhibited growth; Inhibitory Percentage (Means±SD), Staphylococcus aureus ATCC 25923 ([6]; listed as Cur-14): inhibited growth; Inhibitory Percentage (Means±SD), Staphylococcus epidermidis ATCC 12228 ([7]; listed as Cur-14): inhibited growth
QIILLLLKP [Cur-9]	0.07±0.00 μg AAE g^−1	0.70±0.00 μg AAE g^−1	1.04±0.02 μg AAE g^−1	–
VHVLLLIL [Cur-10]	0.30±0.01 μg AAE g^−1	0.75±0.04 μg AAE g^−1	1.04±0.00 μg AAE g^−1	–
VKLKIPLLIL [Cur-3]	0.08±0.00 μg AAE g^−1	0.67±0.00 μg AAE g^−1	1.04±0.00 μg AAE g^−1	–
VLKKLLPLL [Cur-6]	0.09±0.01 μg AAE g^−1	0.67±0.06 μg AAE g^−1	1.05±0.00 μg AAE g^−1	–
